Reference: US20110124614A1, “Methods And Compositions For The Treatment of Autoimmune Disorders” (priority 2008, published 2011)
Where “and” joins values, the source holds several entries; their conditions need not be identical. Equal values may be shown once. Marks after values point to notes of the source that are not given here.

Legend:
[1] = tested on: EAE in GPR30KO female mice; experiment: EAE clinical scoring, E2 pellets, GPR30KO mice (Example II); assay type: in vivo, mouse; details: E2 treated GPR30KO mice, 2.5 mg/60 day pellet
[2] = tested on: EAE in heterozygous (GPR30^+/−) female mice; details: mouse, in vivo
[3] = tested on: CNS infiltration and demyelination in GPR30KO EAE mice; experiment: Spinal cord histology (H&E, LFB-PAS), GPR30KO EAE mice; assay type: in vivo, mouse; details: E2-treated GPR30-KO mice, FIG. 1B
Text: Spinal cords were dissected out for histology. Intact spinal columns were removed and dissected after fixation in 4% paraformaldehyde, dehydrated and embedding in paraffin. To examine neuroinflammation, the sections were stained with hematoxylin and eosin (H&E). To examine demyelination, the sections were stained with Luxon fast blue plus periodic acid Schiff (LFB-PAS).

[4] = Serum E2 level by radioimmunoassay in E2-implanted mice; assay type: in vivo, mouse; details: mice with 2.5 mg/60 day release E2 pellets; RIA; FIG. 3
Method: Serum levels of E2 were determined by radioimmunoassay (RIA) after Sephadex LH-20 column chromatography (GE Healthcare Life Sciences, Piscataway, N.J.). Representative animals were bled by cardiac puncture, and the blood was allowed to clot at 4° C. overnight. The samples were centrifuged, and the sera were collected and stored at −80° C. until hormone analysis was performed. All samples were analyzed in a single assay for each hormone.

[5] = tested on: experimental autoimmune encephalomyelitis (EAE) in WT C57BL/6 female mice; experiment: EAE clinical scoring, E2 pellets, WT mice (Example II); assay type: in vivo, mouse
EAE in GPR30KO mice = experiment: EAE clinical scoring, G-1 or E2 pellets, GPR30KO mice (Example IV); assay type: in vivo, mouse; details: for CDI / Daily / Mortality / Onset / Peak / Incidence: GPR30KO
[6] = tested on: PD-1 expression in CD4^+FoxP3^+ or CD4^+FoxP3^− T cells; experiment: PD-1 expression in CD4+FoxP3+/FoxP3- T cells by flow cytometry, E2-treated WT vs knockout mice (Example V); assay type: in vivo, mouse
Method: Age matched WT C57BL/6 from the animal service at National Cancer Institute (Frederick, Md.), GPR30KO prepared as in Example 1, or PDD-KO mice (Dr. […] Splenocytes or lymph node cells from GPR30KO mice were obtained at the end of the clinical experiment in FIG. 1A and stained for FoxP3 and PD-1, as well as cellular markers for T cells and antigen presenting cells (APC). For membrane staining, 1 million cells were stained at 4° C. in the dark with appropriate Ab dilutions in staining buffer (PBS containing 0.5% BSA and 0.02% sodium azide), Intracellular staining for FoxP3 was performed following the protocol recommended by eBioscience (San Diego, Calif.). Briefly, 4 million cells were surface stained following standard procedures. After washing, the cells were fixed overnight and washed twice with 0.5 ml of permeabilization buffer. […] Flow cytometry data were collected on LSRII and FACSCalibur flow cytometers (BD Bioscience, Franklin Lakes, N.J.), and analyzed using FlowJo software (Tree Star, Ashland, Oreg.). […] The expression levels of PD-1 were analyzed by gating on CD4^+FoxP3^+ or CD4^+FoxP3^− T cells from WT or GPR30 mice. The bar charts in FIG. 5A show the average mean fluorescence intensity (MFI) of Pd-1 in CD4^+FoxP3^+ or CD4^+FoxP3^− from all mice in each group. […]

[7] = tested on: liver, eyes, heart, mammary gland, brain, spleen, kidney, muscle, lung; experiment: H&E organ histology in G-1 treated naive mice; assay type: in vivo, mouse; details: 1.8 mg G-1 treated naive mice
Text: (§1) Treatment with G-1 in viva lacked the “estrogenic effects” of E2.

uteri = experiment: Uterine weight (estrogenic effect); design: species or system mouse; details: G-1 treatment in vivo, FIG. 2E
Text: as §1

[8] = tested on: cytokine secretion by splenocytes of WT immunized mice; experiment: Cytokine secretion of mMog-35-55 stimulated splenocytes, Luminex, WT mice; assay type: in vivo, mouse; details: 48 h supernatants
Method: PD-1KO (Dr. […] One week after implantation experimental autoimmune encephalomyelitis (EAE) was induced. Splenocytes were harvested from […] cell proliferation and cytokine secretion in 48 h supernatants. (*P<0.05, or **P<0.01 compared to placebo). Lymph node and spleen cells were cultured at 4×10^6 cells/well in a 24 well flat-bottom culture plate in stimulation medium (RPMI 1640, 1% sodium pyruvate, 1% L-glutamine, 0.4% 2-β-ME, 10% FBS) with 25 μg/ml mMog-35-55 peptide for 48H. Supernatants were then harvested and stored at -80° C. until tested for cytokines. Culture supernatants were assessed for cytokine levels using a Luminex Bio-Plex mouse cytokine assay kit (BioRad, Hercules, Calif.) following the manufacturer's instructions. The following cytokines were determined in a single assay in three separate experiments: IL-1βIFN-γ, TNF-α, IL-2, IL-4, IL-5. IL-6, IL-12, IL-13, and IL-17. […] This cytokine profile was drastically altered in G-1 treated PD-1Ko mice. The decrease of Il-17 and increase of Il-6, Il-10 and IFN-γ production were abolished, whereas the reduction in IL-2 and Il-4 remained. Thus PD-1 was required for […] downregulation of IL-17 but not Il-2 and Il-4, and upregulation of IL-6, Il10 and IFN-γ.

[9] = WT, 2.5 mg/60 day release E2 pellet, 25 days
[10] = 2.5 mg/60 day E2 pellet, 29 days
[11] = 1.8 mg/40 day G-1 pellet, 29 days

C[C@]12CC[C@@H]3c4ccc(O)cc4CC[C@H]3[C@@H]1CC[C@@H]2O [E2, 17β estradiol]
clinical EAE (in words) [1]: delayed onset and were only partially protected from EAE
Daily [2]: 2.6 ± 0.8
Incidence [2]: 4/7 and 5/10
Mortality [2]: 0/7 and 0/10
Onset [2]: 20.0 ± 1.0
clinical EAE (in words) [2]: delayed onset and were only partially protected from EAE
cellular infiltration and demyelination in CNS [3]: visibly present, but at a reduced level
serum E2 levels [4]: 1.5 to 2 ng/mL
clinical EAE (in words) ([5]; E2-treated WT mice, 2.5 mg/60 day pellet): no sign of the disease
Incidence ([5]; WT, 2.5 mg/60 day release E2 pellet one week before immunization, concluded 25 days after immunization): 0/10
CDI [5, 9]: 0**
Daily [5, 9]: 0**
Mortality [5, 9]: 0/10
Peak ([5]; WT, 2.5 mg/60 day release E2 pellet, 25 days, EAE score scale 0-6): 0**
protective effect against EAE (in words) (EAE in GPR30KO mice; E2 2.5 mg/60 day pellet, GPR30KO mice): only partially offset by the absence of GPR30
CDI (EAE in GPR30KO mice; [10]): 17.2 ± 17.4
Daily (EAE in GPR30KO mice; [10]): 3.7 ± 1.3
Mortality (EAE in GPR30KO mice; [10]): 0/7
Onset (EAE in GPR30KO mice; [10]): 18.0 ± 1.4
Peak (EAE in GPR30KO mice; [10]): 2.5 ± 2.3
Incidence (EAE in GPR30KO mice; 2.5 mg/60 day release E2 pellet, 29 days): 4/7
PD-1 expression in non-regulatory CD4^+FoxP3^− T cells ([6]; WT or PD-1KO mice (so in the source)): did not induce a significant shift
E2 induced upregulation of PD-1 expression in CD4+FoxP3+ cells ([6]; splenocytes from PD-1KO mice (so in the source), FIG. 5A): abolished

CC(=O)c1ccc2c(c1)C1C=CCC1C(c1cc3c(cc1Br)OCO3)N2 (stereo not drawn) [G-1]
abnormalities by H&E staining in liver, eyes, heart, mammary gland, brain, spleen, kidney, muscle or lung [7]: no abnormalities
weight of uteri (uteri): did not significantly change
secretion of IL-17 ([8]; G-1 1.8 mg/40 day pellet, WT, 25 μg/ml mMog-35-55): significantly reduced
production of IFN-γ ([8]; G-1 treated WT): increased
production of IL-1β ([8]; G-1 treated WT): did not significantly change
production of IL-5 ([8]; G-1 treated WT): did not significantly change
production of Il-4 ([8]; G-1 treated WT): suppressed
production of Il-6 ([8]; G-1 treated WT): increased
production of Il-12 ([8]; G-1 treated WT): did not significantly change
production of TNF-α ([8]; G-1 treated WT): did not significantly change
secretion of IL-2 ([8]; G-1 treated WT): significantly reduced
secretion of IL-10 ([8]; G-1 treated WT): increased
protection against EAE (in words) (EAE in GPR30KO mice; G-1 1.8 mg/40 day pellet, GPR30KO mice): completely ineffective
CDI (EAE in GPR30KO mice; [11]): 59.9 ± 13.4
Daily (EAE in GPR30KO mice; [11]): 3.0 ± 0.7
Mortality (EAE in GPR30KO mice; [11]): 0/8
Onset (EAE in GPR30KO mice; [11]): 13.8 ± 1.2
Peak (EAE in GPR30KO mice; [11]): 4.5 ± 0.7
Incidence (EAE in GPR30KO mice; 1.8 mg/40 day release G-1 pellet, concluded 29 days after immunization): 8/8
